In assay [1] the test system is P. falciparum CQ-Resistant (W2 MR4). Description: In vitro malaria parasite development, 3H-hypoxanthine uptake, CQ-resistant strain. Type of assay: cell-based. The conditions noted are these: for IC50: 48 h exposure from ring stage, 3H-hypoxanthine uptake, geometric mean. Here is the method: (§1) Parasite cultures were exposed to different concentrations of Formula IV or hypoestoxide (from 100× stocks in DMSO) for 48 h, beginning at the ring stage. Concentrations yielding 50% inhibition (IC50) were extrapolated from plots of mean percent negative control activity over inhibitor concentration as measured by the uptake of ^3H-hypoxanthine. Data was analyzed after logarithmic transformation and expressed as the geometric mean IC50 and 95% confidence intervals.
(§2) Other anti-parasitic agents such as sesquiterpene artemisinin, chloroquine, mixtures thereof, and the like, can also be administered in appropriate doses along with the compounds of formula I-IV.

The test system of assay [2] is P. falciparum CQ-Sensitive (3D7). Description: In vitro malaria parasite development, 3H-hypoxanthine uptake, CQ-sensitive strain. The conditions noted are these: for IC50: 48 h exposure from ring stage, 3H-hypoxanthine uptake, geometric mean. It is filed as cell-based. Here is the method: as §1, §2
Assay [3] deals with P. berghei berghei (EI strain). The experiment in a line: In vivo effect in malaria-infected mice (blood parasitemia). The conditions noted are these: female mice, 5 mg/Kg oral once daily for 3 days; Giemsa-stained blood smears. As to the method: Five female mice per group were infected i.p. with 1×10^5P. berghei berghei (EI strain) parasitized RBCs and 3 days later, oral therapy was started at 5 mg/Kg once daily with either Formula IV or Chloroquine for 3 days. […], blood parasitemia was evaluated on each mouse on Giemsa-stained smears.

In assay [4] the test system is B16F1 melanocytes. The experiment in a line: Inhibition of lung colonization of B16F1 melanocytes in mice. It is filed as in vivo, C57BL/6 Mice. The conditions noted are these: 5 mg/Kg oral once daily for 10 days; lungs counted on day 16; versus vehicle control. Here is the method: 1×10^5 melanoma cells were injected intravenously into the lateral tail vein of each of 30 mice. Before treatment, mice were randomized into six groups of 5 mice per group. Treatment began one hour after intravenous inoculation of the tumor cells. Drugs, at 5 mg/Kg were administered via oral route, once daily for 10 days. Treatment was stopped on day 10. On day 16, lungs were removed and fixed in 10% formaldehyde. The surface melanoma colonies were counted for each lung and the means were established for each group. The mean for each group was used to calculate % inhibition based on the vehicle control.

Assay [5] has as its system IL-6 production. The experiment in a line: IL-6 production in LPS-stimulated human peripheral blood macrophages (ELISA). It is filed as cell-based. An excerpt: At the end of 24-hour culture, supernatants were removed and tested for the presence of IL-6 by enzymne-linked immunosorbent assay.
The subject of assay [6] is IL-1β production. Description: Inhibition of IL-1β production. It is filed as cell-based.
In assay [7] the test system is IL-12 production. The experiment in a line: Inhibition of IL-12 production. It is filed as cell-based.
The subject of assay [8] is TNF-α production. The experiment in a line: Inhibition of TNF-α production. Type of assay: cell-based.
[9] abbreviates: ratio of IC50 versus hypoestoxide.

What is called IC50 is the concentration that inhibits the measured activity by half. Low values mean inhibition by little substance, high ones a need for much substance. In the case of 12,18-dihydrohypoestoxide [Formula IV], the IC50 is 0.12 µM in assay [1] and 1.4 µM in assay [2]. The “times more active than the parent hypoestoxide against the CQ-resistant strain” value in assay [1] (setting [9]) came to 88 times. The “times more active than hypoestoxide against the CQ-sensitive strain” value in assay [2] (setting [9]) was “about 7 times”. Moreover, the “Reduction of Parasitemia (%)” value in assay [3] was 92%. For the same compound, the “Inhibition (%) of lung melanoma colonies” value in assay [4] is 65%.

In the case of `CCN(CC)CCCC(C)Nc1ccnc2cc(Cl)ccc12` (stereo not shown) [Chloroquine], in assay [3], the “Reduction of Parasitemia (%)” value was determined as 96%.

For `C=C1C(=O)C[C@H]2C[C@@H]3O[C@@]3(C)CC[C@@H]3O[C@@]3(C)C[C@@H](OC(C)=O)[C@H]1C2(C)C` [Hypoestoxide, hypoestoxide], the figures for the IC50 in assay [1] and in assay [2] were 10.6 µM and 10 µM, respectively. Moreover, the “Inhibition (%) of lung melanoma colonies” value in assay [4] stood at 70%. Moreover, the “Inhibition (%) of IL-6 production” value in assay [5] (10 μM, LPS 3 μg/ml, 24 h) turned out to be 96%. Further, in assay [5] (10 μM, LPS 3 μg/ml, 24 h culture supernatant, LPS alone 1200 pg/ml), the “IL-6” value was 50 pg/mL. Besides, the “inhibition of IL-6 (in words)” value in assay [5] (statement of the summary, no conditions given) is given as “inhibits”. Moreover, the “inhibition of IL-1β production (in words)” value in assay [6] is recorded as “inhibits”. The “inhibition of IL-12 production (in words)” value in assay [7] is reported as “inhibits”. In assay [8], the “inhibition of TNF-α production (in words)” value is recorded as “inhibits”.
